The results in this text go back to patent publication US12195467B2, “Compound having TrkA inhibitory activity and pharmaceutical composition, for preventing or alleviating pain, containing same as active ingredient” (JBKLAB CO., LTD., priority 2018, dated 2025).

The target in assay [1] is T1, TrkA (Homo sapiens, UniProt P04629).
T1 construct: purchased MBL International (CycLex) CY-1091
Nature of the assay: TrkA inhibitory activity, CycLex TrkA kinase assay/inhibitor screening kit. The following applies: for inhibition at 1 µM: compound 1 μM, read-out: % inhibition rate (based on 1 μM). The class given is biochemical. On the procedure:
The TrkA inhibitory activity of the compounds was evaluated using CycLex® TrkA kinase assay/inhibitor screening kit of MBL International (Cat No. CY-1091). The test was carried out according to the analysis method provided by the manufacturer. The test method is as follows.
1. 1× wash buffer was prepared by diluting 10× wash buffer in ddH2O.
2. 20×ATP solution (1.25 mM) was prepared by adding 1.6 mL of distilled water to the tube containing ATP dissolved in NA2 salt and freeze-dried.
4. A working solution mixture and a solution of the appropriate concentration of the example compound to evaluate the activity of the example compound were prepared and dispensed into a 96-well plate as shown in table below.
5. After dispensing the solutions into a 96-well plate, the plate was incubated at 30° C. for 30 minutes.
6. After incubation of the plate at 30° C. for 30 minutes, 200 μL of 1× wash buffer was added into each well of the plate, followed by washing. This process was repeated 5 times.
7. After washing the plate, 100 μL of HRP conjugated detection antibody (PX-39) was added into each well of the plate, followed by reaction at room temperature for 60 minutes.
8. Upon completion of the reaction, 200 μL of 1× wash buffer was added into each well of the plate, followed by washing. This process was repeated 5 times.
9. After washing the plate, 100 μL of substrate reagent containing chromogenic substrate and tetra-methylbenzidine (TMB) was added into each well of the plate, followed by incubation at room temperature for 5-15 minutes.
10. Upon completion of the reaction, 100 μL of stop solution (1 N H2SO4) was added into each well of the plate, followed by measuring OD450 within 30 minutes.

Assay [2] addresses T2, TrkC (Homo sapiens, UniProt Q16288).
T2 construct: host or cells: U2OS
Description: PathHunter eXpress TrkC functional assay kit (U2OS cells, agonist NT-3). It is filed as cell-based. The note with it: compound 1 μM, read-out: TrkC % inhibition rate (based on 1 μM). On the procedure: (§1) The inhibitory activity of the example compounds against TrkB and TrkC was evaluated using PathHunter® eXpress TrkB or TrkC functional assay kit (Product Code: 93-0463E3 and 93-0464E3) of DiscoverX. The test was carried out according to the analysis method provided by the manufacturer. The test was carried out as follows over 2 or 3 days depending on the conditions of cells.
(§2) 1. Before starting the experiment, the cell plating (CP) reagent stored at −80° C. was dissolved in a 37° C. water bath.
(§3) 2. When the CP reagent was dissolved, cell vials for TrkB or TrkC were prepared to be dissolved.
(§4) 3. Two U2OS cell vials (TrkB kit & TrkC kit) stored in liquid nitrogen were thawed.
(§5) 4. 500 μL of CP reagent was added to the thawed cell vial, and the cells were sufficiently mixed by pipetting and transferred to a Conical tube in which 11.5 mL of CP reagent was dispensed.
(§6) 5. 12 mL cells (1×10^6 cells in CP reagent) were seeded on a 96-well tissue culture treated plate (100 μL/well), followed by culture in a 37° C., 5% CO2 humidified incubator for 24 hours or 48 hours.
(§7) Day 2 or Day 3: Treatment of Test Material
(§8) 1. Test material, agonist and antagonist were prepared as stock solutions according to the experiment design. • Test material: 10 mM Stock solution in DMSO • Antagonist (GNF-5837): 10 mM Stock solution in 1.8674 mL DMSO • Agonist: TrkB agonist→BDNF, TrkC agonist→NT-3
(§9) 2. 10 mM stock solutions of teat material and antagonist having the concentration of 22 times more concentrated than the final screening concentration were prepared according to the experiment design.
(§10) 3. Each well of the 96-well culture plate containing cells was treated with 5 μL of the solutions of teat material and antagonist having the concentration of 22 times more concentrated than the final screening concentration (#2), followed by incubation at 37° C. for 60 minutes.
(§11) 4. During the incubation, 10 μg/mL stock solution of each agonist for TrkB and TrkC was prepared using a reconstitution buffer for the purpose of the experiment, and each well of the plate was treated with 5 μL of the prepared solution, followed by incubation at 19-25° C. for 3 hours.
(§12) 5. During the incubation, a detection reagent working solution (4.75 ml Cell assay buffer, 1.25 ml Substrate Reagent 1, 0.25 ml Substrate Reagent 2) was prepared. Upon completion of the incubation, 55 μL of the working solution was added into each well of the plate.
(§13) 7. The plate was incubated at room temperature for 60 minutes in a dark place, and the […] was measured with a luminescence plate reader.

The target in assay [3] is T3, TrkB (Homo sapiens, UniProt Q16620).
T3 construct: host or cells: U2OS
Description: PathHunter eXpress TrkB functional assay kit (U2OS cells, agonist BDNF). It is filed as cell-based. The following applies: compound 1 μM, read-out: TrkB % inhibition rate (based on 1 μM). The protocol:
as §1, §2, §3, §4, §5, §6, §7, §8, §9, §10, §11, §12, §13

The subject of assay [4] is postoperative pain animal model. Description: Pharmacological activity in postoperative pain model (von-Frey mechanical allodynia, 50% withdrawal threshold). The class given is in vivo, Sprague-Dawley male rats. The protocol:
Sprague-Dawley male rats weighing around 150 g (Orient bio., Korea) were used. Rats were raised in an environment where a 12-hour light-dark cycle was maintained, 4 per transparent plastic cage covered with scob as bedding. Food and water were provided freely. To verify the analgesic effect of the example compounds, all rats were anesthetized with O2 delivered from the induction chamber at a ratio of 3:3 of isoflurane and operated. Anesthetized rats were placed on a 37° C. warm plate to prevent hypothermia during the operation. The ipsilateral sole (left) of the hind paw of the experimental animal was disinfected with 10% povidone-iodine solution, and incised to a length of 1 cm with a #11 surgical knife. The incision was made starting from 0.5 cm of the proximal edge of the heel through the skin and fascia on the side of the ipsilateral sole toward the toe. After the incision, a gentle pressure was applied to the incision site to stop the bleeding and the skin was sutured. The surgical site was sterilized with 10% povidone-iodine solution, and gentamicin (8 mg/kg) was administered intraperitoneally to prevent infection. The analgesic effect of the compound on postoperative pain was evaluated in the experimental animals 2 days after the surgery. […] The formula for calculating the 50% withdrawal threshold (g) is as follows. 50% Withdrawal threshold (g)=(10^(x+kd))/10^4 [Mathematical Formula 1] • x=the value of the last tested filament (log unit value). • k=the value indicating positive/negative reaction by up-down method. • d=the value fixed at 0.224 as the average difference between stimuli.

The structures appear in SMILES notation.

T3 sequence (Q16620 32-822): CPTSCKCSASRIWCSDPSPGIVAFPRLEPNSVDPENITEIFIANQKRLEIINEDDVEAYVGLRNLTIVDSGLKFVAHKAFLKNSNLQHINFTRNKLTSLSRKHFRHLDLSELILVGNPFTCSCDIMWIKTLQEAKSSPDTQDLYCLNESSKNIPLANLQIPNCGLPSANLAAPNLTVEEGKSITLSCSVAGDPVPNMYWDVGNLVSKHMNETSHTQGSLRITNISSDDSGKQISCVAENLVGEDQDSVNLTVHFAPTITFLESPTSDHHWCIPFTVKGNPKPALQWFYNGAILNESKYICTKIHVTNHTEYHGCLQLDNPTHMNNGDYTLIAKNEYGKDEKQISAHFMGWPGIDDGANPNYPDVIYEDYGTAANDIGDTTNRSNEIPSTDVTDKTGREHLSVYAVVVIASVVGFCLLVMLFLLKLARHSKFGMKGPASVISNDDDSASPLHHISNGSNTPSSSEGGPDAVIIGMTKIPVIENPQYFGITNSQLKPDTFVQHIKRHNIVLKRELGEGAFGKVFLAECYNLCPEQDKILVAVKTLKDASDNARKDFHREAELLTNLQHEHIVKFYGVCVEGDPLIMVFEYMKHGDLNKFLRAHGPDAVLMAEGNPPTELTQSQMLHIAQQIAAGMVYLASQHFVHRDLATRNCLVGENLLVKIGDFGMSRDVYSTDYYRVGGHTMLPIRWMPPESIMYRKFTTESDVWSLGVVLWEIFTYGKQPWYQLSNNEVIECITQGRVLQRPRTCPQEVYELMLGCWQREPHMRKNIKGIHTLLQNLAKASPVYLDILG
T1 sequence (P04629 33-796): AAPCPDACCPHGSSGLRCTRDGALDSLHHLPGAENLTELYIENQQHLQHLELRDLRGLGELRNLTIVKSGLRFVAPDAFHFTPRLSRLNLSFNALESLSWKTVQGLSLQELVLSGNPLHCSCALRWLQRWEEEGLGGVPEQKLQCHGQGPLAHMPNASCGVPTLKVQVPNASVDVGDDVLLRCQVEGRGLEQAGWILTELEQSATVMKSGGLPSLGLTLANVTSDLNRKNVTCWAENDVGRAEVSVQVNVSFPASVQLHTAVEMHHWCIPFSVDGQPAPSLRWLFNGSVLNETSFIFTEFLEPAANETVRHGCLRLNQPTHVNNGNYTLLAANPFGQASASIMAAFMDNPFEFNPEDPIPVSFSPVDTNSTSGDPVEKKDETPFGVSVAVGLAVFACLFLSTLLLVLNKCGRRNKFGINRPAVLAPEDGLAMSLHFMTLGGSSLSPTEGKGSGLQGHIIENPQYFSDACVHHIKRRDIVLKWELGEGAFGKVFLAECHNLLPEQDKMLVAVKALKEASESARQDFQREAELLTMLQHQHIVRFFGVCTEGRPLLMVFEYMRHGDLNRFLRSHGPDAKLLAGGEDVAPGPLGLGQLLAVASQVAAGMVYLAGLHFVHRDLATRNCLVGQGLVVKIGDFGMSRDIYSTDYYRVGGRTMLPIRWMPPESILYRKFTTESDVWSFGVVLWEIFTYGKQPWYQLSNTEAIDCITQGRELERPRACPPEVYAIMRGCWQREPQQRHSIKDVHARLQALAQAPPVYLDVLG
T2 sequence (Q16288 32-839): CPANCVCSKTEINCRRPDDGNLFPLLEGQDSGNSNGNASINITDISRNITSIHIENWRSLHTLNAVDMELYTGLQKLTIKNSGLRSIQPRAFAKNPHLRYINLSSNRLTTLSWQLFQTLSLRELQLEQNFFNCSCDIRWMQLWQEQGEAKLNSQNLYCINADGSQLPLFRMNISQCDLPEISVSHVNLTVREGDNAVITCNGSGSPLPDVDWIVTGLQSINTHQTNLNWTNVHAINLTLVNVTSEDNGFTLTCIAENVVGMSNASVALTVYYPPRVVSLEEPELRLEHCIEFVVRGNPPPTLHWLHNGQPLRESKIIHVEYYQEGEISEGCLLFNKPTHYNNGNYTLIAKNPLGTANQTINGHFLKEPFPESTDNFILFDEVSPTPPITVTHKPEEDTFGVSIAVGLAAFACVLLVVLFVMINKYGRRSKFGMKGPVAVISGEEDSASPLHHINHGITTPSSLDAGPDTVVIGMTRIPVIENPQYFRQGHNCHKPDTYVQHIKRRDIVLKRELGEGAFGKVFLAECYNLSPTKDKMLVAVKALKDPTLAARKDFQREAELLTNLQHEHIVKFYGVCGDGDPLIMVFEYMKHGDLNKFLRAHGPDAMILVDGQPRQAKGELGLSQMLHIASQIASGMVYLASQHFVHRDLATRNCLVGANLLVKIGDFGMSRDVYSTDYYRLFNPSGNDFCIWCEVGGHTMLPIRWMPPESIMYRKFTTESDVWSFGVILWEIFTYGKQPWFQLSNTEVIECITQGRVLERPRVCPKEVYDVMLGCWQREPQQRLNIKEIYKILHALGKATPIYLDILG

The term inhibition denotes the change of the read-out against control, counted positive when it falls. As to `Clc1ccc(Nc2n[nH]c3cnc(-c4cnn(C5CCNCC5)c4)cc23)cc1Cl` [Example 2, N-(3,4-dichlorophenyl)-5-(1-(piperidine-4-yl)-1H-pyrazole-4-yl)-1H-pyrazolo[3,4-c]pyridine-3-amine], in assay [1], the inhibition at 1 µM came to 6%.

For the molecule `Clc1cc(Cl)cc(Nc2n[nH]c3cnc(-c4cnn(C5CCNCC5)c4)cc23)c1` [Example 3, N-(3,5-dichlorophenyl)-5-(1-(piperidine-4-yl)-1H-pyrazole-4-yl)-1H-pyrazolo[3,4-c]pyridine-3-amine], the inhibition at 1 µM in assay [1] is 6%.

In the case of `Cn1cc(-c2cnc3[nH]nc(Nc4cccc(Cl)c4)c3c2)cn1` [Example 4, N-(3-chlorophenyl)-5-(1-methyl-1H-pyrazole-4-yl)-1H-pyrazolo[3,4-b]pyridine-3-amine], the inhibition at 1 µM in assay [1] turned out to be 59%.

`Clc1cccc(Nc2n[nH]c3cnc(-c4cccnc4)cc23)c1` [Example 1, N-(3-chlorophenyl)-5-(pyridine-3-yl)-1H-pyrazolo[3,4-c]pyridine-3-amine]: the inhibition at 1 µM in assay [1] amounted to 12%.

In general, IC50 refers to the concentration that gives 50% inhibition. A high value points to a need for much substance. On to `O=C(Nc1n[nH]c2ncc(-c3cnn(C4CCNCC4)c3)cc12)c1ccc(F)cc1` [Example 22, 4-fluoro-N-(5-(1-(piperidine-4-yl)-1H-pyrazole-4-yl)-1H-pyrazolo[3,4-b]pyridine-3-yl)benzamide], for which the inhibition at 1 µM in assay [2] is 20%; in assay [1] it was 99%; in assay [3], -2%. Also, the IC50 in assay [1] was 436 nM.

For the molecule `Cn1cc(-c2cnc3[nH]nc(Nc4cc(Cl)cc(Cl)c4)c3c2)cn1` [Example 6, N-(3,5-dichlorophenyl)-5-(1-methyl-1H-pyrazole-4-yl)-1H-pyrazolo[3,4-b]pyridine-3-amine], the inhibition at 1 µM in assay [1] is 32%.

As to `CN1CCN(c2ccc(C(=O)Nc3c[nH]c4ncnc(N5CCC(C(N)=O)CC5)c34)cc2)CC1` [Example 20, 1-(5-(4-(4-methylpiperazine-1-yl)benzamido)-7H-pyrrolo[2,3-d]pyrimidine-4-yl)piperidine-4-carboxamide], in assay [1], the inhibition at 1 µM worked out at 4%.

On to `COc1ccc(Cn2cc(NC(=O)c3ccc(N4CCN(C)CC4)cc3)c3c(-c4cnn(C5CCNCC5)c4)ncnc32)cc1` [Example 16, N-(7-(4-methoxybenzyl)-4-(1-(piperidine-4-yl)-1H-pyrazole-4-yl)-7H-pyrrolo[2,3-d]pyrimidine-5-yl)-4-(4-methylpiperazine-1-yl)benzamide], for which the inhibition at 1 µM in assay [1] was 8%.

As for `CN1CCN(c2ccc(C(=O)Nc3c[nH]c4ncnc(N5CCC(N6CCCC6)CC5)c34)cc2)CC1` [Example 19, 4-(4-methylpiperazine-1-yl)-N-(4-(4-(pyrrolidine-1-yl)piperidine-1-yl)-7H-pyrrolo[2,3-d]pyrimidine-5-yl)benzamide], the inhibition at 1 µM in assay [1] is -1%.

In the case of `CN1CCN(c2ccc(C(=O)Nc3n[nH]c4ncc(-c5ccc(F)cc5)cc34)cc2)CC1` [Example 11, N-(5-(4-fluorophenyl)-1H-pyrazolo[3,4-b]pyridine-3-yl)-4-(4-methylpiperazine-1-yl)benzamide], the figures for the inhibition at 1 µM in assay [2], in assay [1] and in assay [3] were 9%, 99% and 17%, respectively. The same molecule registered an IC50 in assay [1] of 218 nM.

With `CN1CCN(c2ccc(C(=O)Nc3c[nH]c4ncnc(-c5cnn(C6CCN(C(=O)OC(C)(C)C)CC6)c5)c34)cc2)CC1` [Example 18, tert-butyl 4-(4-(5-(4-(4-methylpiperazine-1-yl)benzamido)-7H-pyrrolo[2,3-d]pyrimidine-4-yl)-1H-pyrazole-1-yl)piperidine-1-carboxylate], the inhibition at 1 µM in assay [1] is 24%.

As for `CN1CCN(c2ccc(C(=O)Nc3c[nH]c4ncnc(N5CCCC(NC(N)=O)C5)c34)cc2)CC1` (stereo not shown) [Example 21, 4-(4-methylpiperazine-1-yl)-N-(4-(3-ureidopiperidine-1-yl)-7H-pyrrolo[2,3-d]pyrimidine-5-yl)benzamide], the inhibition at 1 µM in assay [1] turned out to be 0%.

As for `CC(C)NC(=O)Nc1cccc(-c2cnc3[nH]nc(NC(=O)c4ccc(N5CCN(C)CC5)cc4)c3c2)c1` [Example 9, N-(5-(3-(3-isopropylureido)phenyl)-1H-pyrazolo[3,4-b]pyridine-3-yl)-4-(4-methylpiperazine-1-yl)benzamide], the values for the inhibition at 1 µM in assay [2], in assay [1] and in assay [3] were -20%, 81% and 1%, respectively.

For `CN1CCN(c2ccc(C(=O)Nc3c[nH]c4ncnc(-c5cnn(C6CCNCC6)c5)c34)cc2)CC1` [Example 17, 4-(4-methylpiperazine-1-yl)-N-(4-(1-(piperidine-4-yl)-1H-pyrazole-4-yl)-7H-pyrrolo[2,3-d]pyrimidine-5-yl)benzamide], in assay [1], the inhibition at 1 µM was -11%.

Consider `CN1CCN(c2ccc(C(=O)Nc3c[nH]c4ncnc(-c5cc(Cl)c(O)c(Cl)c5)c34)cc2)CC1` [Example 24, N-(4-(3,5-dichloro-4-hydroxyphenyl)-7H-pyrrolo[2,3-d]pyrimidine-5-yl)-4-(4-methylpiperazine-1-yl)benzamide], for which, in assay [1], the inhibition at 1 µM is 49%.

Consider `Cn1cc(-c2cnc3[nH]nc(Nc4ccc(Cl)c(Cl)c4)c3c2)cn1` [Example 5, N-(3,4-dichlorophenyl)-5-(1-methyl-1H-pyrazole-4-yl)-1H-pyrazolo[3,4-b]pyridine-3-amine], for which the inhibition at 1 µM in assay [1] was determined as 32%.

By ED50 is commonly meant the dose at which the effect has come halfway, by size or by number of responders. Lower therefore signals an effect at a small dose. Molecule `CC(C)C[C@H](CN)CC(=O)O` [Lyrica, Pregabalin, reference compound] gave a median effective dose (ED50) in assay [4] (Rattus norvegicus, po, 48 h) of 17.5 mg/kg. Also, the “Maximum duration of drug efficacy” value in assay [4] (oral, rat postoperative pain model, 2 days after surgery) came out at 1.0 h.

Consider `CN1CCN(c2ccc(C(=O)Nc3n[nH]c4ncc(-c5cnn(C6CCNCC6)c5)cc34)cc2)CC1` [Example 8, 4-(4-methylpiperazine-1-yl)-N-(5-(1-(piperidine-4-yl)-1H-pyrazole-4-yl)-1H-pyrazolo[3,4-b]pyridine-3-yl)benzamide], for which the inhibition at 1 µM in assay [1] was determined as 99%.

Take `Clc1cc(Cl)cc(Nc2n[nH]c3ncc(-c4cnn(C5CCNCC5)c4)cc23)c1` [Example 7, N-(3,5-dichlorophenyl)-5-(1-(piperidine-4-yl)-1H-pyrazole-4-yl)-1H-pyrazolo[3,4-b]pyridine-3-amine]: the inhibition at 1 µM in assay [1] amounted to 37%.
